Structures can show the parent of a compound that is named as a salt.
Assays:
[1] = system: E. coli GC 6368 (SHV-7); experiment: MIC microbroth dilution; β-lactamase class A (ESBL); format: cell-based; conditions: Escherichia coli, Cefepime + 4 ug/ml Compound 2, read-out: MIC
Procedure: (§1) The in vitro activities of the antibiotics were determined by the microbroth dilution method as recommended by the National Committee for Clinical Laboratory Standards (NCCLS). (NCCLS. 2000. Methods for Dilution Antimicrobial Susceptibility Tests for Bacteria That Grow Aerobically; Approved Standards: M7-A5, vol. 19. National Committee for Clinical Laboratory Standards, Villanova, Pa.). Mueller-Hinton II broth (MHBII)(BBL Cockeysville, Md.), was used for the testing procedure. […]. The plates were incubated for 18-22 hours at 35° C. in ambient air.

[2] = system: E. coli GC 1684 (TEM-10); experiment: as above; format: cell-based; conditions: Escherichia coli, Cefepime + 4 ug/ml Compound 2, read-out: MIC
Procedure: as §1

[3] = system: S. typhimurium GC 4197 CTX-M-5; experiment: as above; format: cell-based; conditions: Salmonella enterica, Cefepime + 4 ug/ml Compound 2, read-out: MIC
Procedure: as §1

[4] = system: E. coli GC 2017 (TEM-10 + pl 6.3; 8.1); experiment: as above; format: cell-based; conditions: Escherichia coli, Cefepime + 4 ug/ml Compound 2, read-out: MIC
Procedure: as §1

[5] = system: E. coli GC 2400 (TEM-43); experiment: as above; format: cell-based; conditions: Escherichia coli, Cefepime + 4 ug/ml Compound 2, read-out: MIC
Procedure: as §1

[6] = system: E. coli GC 2300 (TEM-28); experiment: as above; format: cell-based; conditions: Escherichia coli, Cefepime + 4 ug/ml Compound 2, read-out: MIC
Procedure: as §1

[7] = system: E. coli GC 1995 (TEM-10); experiment: as above; format: cell-based; conditions: Escherichia coli, Cefepime + 4 ug/ml Compound 2, read-out: MIC
Procedure: as §1

[8] = system: P. aeruginosa PT 8411 PTZ-R; experiment: MIC microbroth dilution; format: cell-based; conditions: Pseudomonas aeruginosa, PT8411PTZR, Cefepime + 4 ug/ml Compound 2, read-out: MIC
Procedure: as §1

[9] = system: P. aeruginosa PT 9587 PTZ-R; experiment: MIC microbroth dilution; format: cell-based; conditions: Pseudomonas aeruginosa, PT9587PTZR, Cefepime + 4 ug/ml Compound 2, read-out: MIC
Procedure: as §1

[10] = system: P. aeruginosa PT 8503 PTZ-R; experiment: MIC microbroth dilution; format: cell-based; conditions: Pseudomonas aeruginosa, PT8503PTZR, Cefepime + 4 ug/ml Compound 2, read-out: MIC
Procedure: as §1

[11] = system: P. aeruginosa PT 9236 PTZ-R; experiment: MIC microbroth dilution; format: cell-based; conditions: Pseudomonas aeruginosa, PT9236PTZR, Cefepime + 4 ug/ml Compound 2, read-out: MIC
Procedure: as §1

[12] = system: A. baumannii PT 9158 PTZ-R; experiment: MIC microbroth dilution; β-lactamase class not determined; format: cell-based; conditions: Acinetobacter baumannii, PT9158PTZR, Cefepime + 4 ug/ml Compound 2, read-out: MIC
Procedure: as §1

[13] = system: A. baumannii PT 8321 PTZ-R; experiment: as above; format: cell-based; conditions: Acinetobacter baumannii, PT8321PTZR, Cefepime + 4 ug/ml Compound 2, read-out: MIC
Procedure: as §1

[14] = system: E. coli GC 5901 (TEM-1 and SHV-8); experiment: MIC microbroth dilution; β-lactamase class A, A (ESBL); format: cell-based; conditions: Escherichia coli, Cefepime + 4 ug/ml Compound 2, read-out: MIC
Procedure: as §1

[15] = system: E. coli GC 2146 (TEM-1; SHV-7); experiment: as above; format: cell-based; conditions: Escherichia coli, Cefepime + 4 ug/ml Compound 2, read-out: MIC
Procedure: as §1

[16] = system: E. coli GC 1499 (TEM-4 + TEM-1); experiment: as above; format: cell-based; conditions: Escherichia coli, Cefepime + 4 ug/ml Compound 2, read-out: MIC
Procedure: as §1

[17] = system: E. coli GC 6260 (TEM-1 + SHV-5); experiment: as above; format: cell-based; conditions: Escherichia coli, Cefepime + 4 ug/ml Compound 2, read-out: MIC
Procedure: as §1

[18] = system: E. coli GC 2015 (TEM-10 + SHV-1); experiment: as above; format: cell-based; conditions: Escherichia coli, Cefepime + 4 ug/ml Compound 2, read-out: MIC
Procedure: as §1

[19] = system: E. coli GC 1695 (TEM-1 + TEM-10); experiment: as above; format: cell-based; conditions: Escherichia coli, Cefepime + 4 ug/ml Compound 2, read-out: MIC
Procedure: as §1

[20] = system: E. cloacae GC 6991 (AmpC); experiment: MIC microbroth dilution; β-lactamase class C; format: cell-based; conditions: Enterobacter cloacae, Cefepime + 4 ug/ml Compound 2, read-out: MIC
Procedure: as §1

[21] = system: K. pneumoniae GC 7820 Act 1; experiment: MIC microbroth dilution; β-lactamase class C; format: cell-based; conditions: Klebsiella pneumoniae, GC7820ACT1, K. pneumoniae GC 7820; Cefepime + 4 ug/ml Compound 2; read-out: MIC
Procedure: as §1

[22] = system: K. pneumoniae GC 7822 Act 1; experiment: MIC microbroth dilution; β-lactamase class C; format: cell-based; conditions: Klebsiella pneumoniae, GC7822ACT1, Cefepime + 4 ug/ml Compound 2, read-out: MIC
Procedure: as §1

[23] = system: C. freundii GC 4164 Inducible AmpC; experiment: MIC microbroth dilution; β-lactamase class C; format: cell-based; conditions: Citrobacter freundii, Cefepime + 4 ug/ml Compound 2, read-out: MIC
Procedure: as §1

[24] = system: E. cloacae PT 1494 Inducible AmpC; experiment: MIC microbroth dilution; β-lactamase class C; format: cell-based; conditions: Enterobacter cloacae, Cefepime + 4 ug/ml Compound 2, read-out: MIC
Procedure: as §1

[25] = system: P. aeruginosa ATCC 27853 AmpC-inducable; experiment: MIC microbroth dilution; β-lactamase class C; format: cell-based; conditions: Pseudomonas aeruginosa, ATCC27853, Cefepime + 4 ug/ml Compound 2, read-out: MIC
Procedure: as §1

[26] = system: E. cloacae PT 967 Inducible AmpC; experiment: MIC microbroth dilution; β-lactamase class C; format: cell-based; conditions: Enterobacter cloacae, Cefepime + 4 ug/ml Compound 2, read-out: MIC
Procedure: as §1

[27] = system: K. pneumoniae GC 7821 DHA 1; experiment: MIC microbroth dilution; β-lactamase class C; format: cell-based; conditions: Klebsiella pneumoniae, GC7821DHA1, K. pneumoniae GC 7821; Cefepime + 4 ug/ml Compound 2; read-out: MIC
Procedure: as §1

[28] = system: E. cloacae GC 1712 AmpC-inducible; experiment: MIC microbroth dilution; β-lactamase class C; format: cell-based; conditions: Enterobacter cloacae, Cefepime + 4 ug/ml Compound 2, read-out: MIC
Procedure: as §1

[29] = system: P. aeruginosa GC 1763 AmpC-inducible; experiment: MIC microbroth dilution; β-lactamase class C; format: cell-based; conditions: Pseudomonas aeruginosa, Cefepime + 4 ug/ml Compound 2, read-out: MIC
Procedure: as §1

[30] = system: E. cloacae GC 1477 (AmpC); experiment: MIC microbroth dilution; β-lactamase class C; format: cell-based; conditions: Enterobacter cloacae, Cefepime + 4 ug/ml Compound 2, read-out: MIC
Procedure: as §1

[31] = system: A. baumannii GC 7684 AmpC, AmpC; experiment: MIC microbroth dilution; β-lactamase class C; format: cell-based; conditions: Acinetobacter baumannii, Cefepime + 4 ug/ml Compound 2, read-out: MIC
Procedure: as §1

[32] = system: A. baumannii GC 7687 AmpC; experiment: MIC microbroth dilution; β-lactamase class C; format: cell-based; conditions: Acinetobacter baumannii, GC7687AMPC, Cefepime + 4 ug/ml Compound 2, read-out: MIC
Procedure: as §1

[33] = system: S. maltophilia GC 1712 (L1); experiment: MIC microbroth dilution; β-lactamase class B; format: cell-based; conditions: Stenotrophomonas maltophilia, Cefepime + 4 ug/ml Compound 2, read-out: MIC
Procedure: as §1

[34] = system: E. coli GC 2920 (IRT-2); experiment: MIC microbroth dilution; β-lactamase class A (IRT); format: cell-based; conditions: Escherichia coli, Cefepime + 4 ug/ml Compound 2, read-out: MIC
Procedure: as §1

[35] = system: E. coli GC 4971 OXA-1, TEM-1; experiment: MIC microbroth dilution; β-lactamase class A, D; format: cell-based; conditions: Escherichia coli, Cefepime + 4 ug/ml Compound 2, read-out: MIC
Procedure: as §1

[36] = system: K. pn GC 2391 (pl 5.4; 5.6; 7.6; 8.7 B-lactamases); experiment: MIC microbroth dilution; β-lactamase class A, A (ESBL), C; format: cell-based, K. pneumoniae; conditions: Klebsiella pneumoniae, Cefepime + 4 ug/ml Compound 2, read-out: MIC
Procedure: as §1

Measured: MIC

O=C(O)C1=CS[C@@H]2/C(=C\c3cn4c(n3)COCC4)C(=O)N12 [Compound 2, (5R), (6Z)-6-(5,6-Dihydro-8H-imidazo[2.1-c][1,4]oxazin-2-ylmethylene)-7-oxo-4-thia-1-azabicyclo[3.2.0]hept-2-ene-2-carboxylic Acid, Sodium Salt]
4 µg/mL: [8]
0.06 µg/mL: [1] | [2] | [4] | [24] | [34]
> 16 µg/mL: [13]
0.03 µg/mL: [7] | [17] | [19] | [27]
8 µg/mL: [31]
0.25 µg/mL: [3] | [6] | [21] | [30]
0.5 µg/mL: [5] | [20] | [22] | [36]
16 µg/mL: [11] | [12] | [32] | [33]
1 µg/mL: [16]
2 µg/mL: [9] | [10] | [14] | [25] | [29]
0.12 µg/mL: all other assays above

— patent publication US20070129344A1, “Bicyclic 6-alkylidene-penem beta-lactamase inhibitors and beta-lactam antibiotic combination: a broad spectrum antibiotic” (priority 2005, published 2007)
